Data: ChEMBL document CHEMBL5465560, “Selectivity Literature for EUbOPEN Chemogenomic Library” (2024)
Values belong to the molecule of their own block, whether it stands above or below them.

Key:
[1] = target: Mitogen-activated protein kinase 10 (Homo sapiens, UniProt P53779); experiment: Selectivity interaction (Kinase panel (DSF assay)) EUB0001559a MAPK10
[2] = target: T1, Mitogen-activated protein kinase kinase kinase kinase 2 (Homo sapiens) (UniProt Q12851); experiment: Selectivity interaction (SelectScreen profiling (Invitrogen)) EUB0000607a MAP4K2; conditions: at 2 µM
T1 sequence (whole entry): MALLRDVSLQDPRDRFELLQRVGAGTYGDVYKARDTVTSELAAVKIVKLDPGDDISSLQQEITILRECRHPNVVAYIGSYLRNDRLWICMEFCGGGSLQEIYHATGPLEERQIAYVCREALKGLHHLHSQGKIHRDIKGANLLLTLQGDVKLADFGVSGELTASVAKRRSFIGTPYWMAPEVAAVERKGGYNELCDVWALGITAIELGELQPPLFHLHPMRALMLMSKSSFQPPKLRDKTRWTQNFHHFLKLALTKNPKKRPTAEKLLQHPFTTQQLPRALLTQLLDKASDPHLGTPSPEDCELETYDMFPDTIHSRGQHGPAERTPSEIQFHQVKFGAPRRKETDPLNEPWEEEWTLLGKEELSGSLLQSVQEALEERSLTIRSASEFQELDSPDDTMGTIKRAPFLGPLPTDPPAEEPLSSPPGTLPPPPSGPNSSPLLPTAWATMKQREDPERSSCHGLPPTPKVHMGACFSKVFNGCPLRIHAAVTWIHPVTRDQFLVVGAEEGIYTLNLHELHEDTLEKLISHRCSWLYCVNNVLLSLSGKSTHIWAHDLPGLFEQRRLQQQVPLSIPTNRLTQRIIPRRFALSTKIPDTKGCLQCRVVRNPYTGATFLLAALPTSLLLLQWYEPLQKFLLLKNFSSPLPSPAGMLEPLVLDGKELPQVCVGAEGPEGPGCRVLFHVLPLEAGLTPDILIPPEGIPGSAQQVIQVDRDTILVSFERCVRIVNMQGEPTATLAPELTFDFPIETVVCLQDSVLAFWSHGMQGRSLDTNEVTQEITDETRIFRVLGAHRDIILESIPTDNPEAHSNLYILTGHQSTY

[3] = target: T2, Mitogen-activated protein kinase 13 (Homo sapiens) (UniProt O15264); experiment: Selectivity interaction (KinomeScan (DiscoverX)) EUB0001049a MAPK13; conditions: at 1 µM
T2 sequence (whole entry): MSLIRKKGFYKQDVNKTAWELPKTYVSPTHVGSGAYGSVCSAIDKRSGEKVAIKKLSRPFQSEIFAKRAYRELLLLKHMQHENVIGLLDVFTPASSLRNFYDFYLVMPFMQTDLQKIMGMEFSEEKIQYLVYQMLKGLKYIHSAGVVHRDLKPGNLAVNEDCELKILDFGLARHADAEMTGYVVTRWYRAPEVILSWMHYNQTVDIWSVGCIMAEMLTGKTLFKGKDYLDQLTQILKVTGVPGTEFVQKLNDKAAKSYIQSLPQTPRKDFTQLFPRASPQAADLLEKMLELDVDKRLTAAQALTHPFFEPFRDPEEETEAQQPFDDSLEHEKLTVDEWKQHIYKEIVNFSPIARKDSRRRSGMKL

[4] = target: Glycogen synthase kinase-3 alpha (Homo sapiens, UniProt P49840); experiment: Selectivity interaction (KinomeScan (DiscoverX)) EUB0000666a GSK3A; conditions: at 10 µM
[5] = target: T3, Tyrosine-protein kinase Tec (Homo sapiens) (UniProt P42680); experiment: Selectivity interaction (KinomeScan (DiscoverX)) EUB0000666a TEC; conditions: at 10 µM
T3 sequence (whole entry): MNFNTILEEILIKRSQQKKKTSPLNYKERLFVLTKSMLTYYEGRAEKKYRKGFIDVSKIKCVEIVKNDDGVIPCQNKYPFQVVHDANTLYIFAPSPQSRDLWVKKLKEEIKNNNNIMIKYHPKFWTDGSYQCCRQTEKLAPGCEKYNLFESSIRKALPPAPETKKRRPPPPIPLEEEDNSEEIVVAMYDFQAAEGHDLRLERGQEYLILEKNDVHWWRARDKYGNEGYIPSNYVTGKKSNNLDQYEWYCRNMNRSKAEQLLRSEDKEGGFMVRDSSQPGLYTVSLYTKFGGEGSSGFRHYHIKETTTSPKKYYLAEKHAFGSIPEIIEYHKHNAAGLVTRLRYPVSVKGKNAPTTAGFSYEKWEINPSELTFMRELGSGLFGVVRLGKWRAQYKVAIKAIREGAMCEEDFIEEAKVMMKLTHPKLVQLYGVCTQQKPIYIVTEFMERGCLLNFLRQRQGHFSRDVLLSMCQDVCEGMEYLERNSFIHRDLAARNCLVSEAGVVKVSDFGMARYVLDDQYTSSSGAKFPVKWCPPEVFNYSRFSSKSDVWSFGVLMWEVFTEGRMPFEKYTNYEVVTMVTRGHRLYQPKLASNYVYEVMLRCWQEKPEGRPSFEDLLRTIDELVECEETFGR

[6] = target: T4, Beta-adrenergic receptor kinase 1 (Homo sapiens) (UniProt P25098); experiment: Selectivity interaction (Kinase panel (Z-LYTE Assay)) EUB0001632a ADRBK1; conditions: at 10 µM
T4 sequence (whole entry): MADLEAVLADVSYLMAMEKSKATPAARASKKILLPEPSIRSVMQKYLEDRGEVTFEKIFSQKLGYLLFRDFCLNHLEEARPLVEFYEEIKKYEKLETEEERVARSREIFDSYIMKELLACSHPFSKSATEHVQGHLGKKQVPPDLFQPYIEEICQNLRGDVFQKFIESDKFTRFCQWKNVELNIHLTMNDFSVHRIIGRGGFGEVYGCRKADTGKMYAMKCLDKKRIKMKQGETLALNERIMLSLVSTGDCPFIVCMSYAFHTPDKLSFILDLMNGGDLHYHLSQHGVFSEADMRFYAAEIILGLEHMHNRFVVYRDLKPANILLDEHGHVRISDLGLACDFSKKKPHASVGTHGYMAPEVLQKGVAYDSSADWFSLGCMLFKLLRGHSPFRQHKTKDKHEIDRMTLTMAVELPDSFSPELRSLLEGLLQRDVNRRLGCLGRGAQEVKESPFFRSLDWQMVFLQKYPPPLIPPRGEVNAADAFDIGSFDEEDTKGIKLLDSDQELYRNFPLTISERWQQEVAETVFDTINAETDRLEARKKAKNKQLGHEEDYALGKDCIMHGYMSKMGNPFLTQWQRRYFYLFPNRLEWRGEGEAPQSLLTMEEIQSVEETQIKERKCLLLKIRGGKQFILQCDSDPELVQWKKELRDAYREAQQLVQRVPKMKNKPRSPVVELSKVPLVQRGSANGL

Chain of Mitogen-activated protein kinase 10 (P53779 whole entry): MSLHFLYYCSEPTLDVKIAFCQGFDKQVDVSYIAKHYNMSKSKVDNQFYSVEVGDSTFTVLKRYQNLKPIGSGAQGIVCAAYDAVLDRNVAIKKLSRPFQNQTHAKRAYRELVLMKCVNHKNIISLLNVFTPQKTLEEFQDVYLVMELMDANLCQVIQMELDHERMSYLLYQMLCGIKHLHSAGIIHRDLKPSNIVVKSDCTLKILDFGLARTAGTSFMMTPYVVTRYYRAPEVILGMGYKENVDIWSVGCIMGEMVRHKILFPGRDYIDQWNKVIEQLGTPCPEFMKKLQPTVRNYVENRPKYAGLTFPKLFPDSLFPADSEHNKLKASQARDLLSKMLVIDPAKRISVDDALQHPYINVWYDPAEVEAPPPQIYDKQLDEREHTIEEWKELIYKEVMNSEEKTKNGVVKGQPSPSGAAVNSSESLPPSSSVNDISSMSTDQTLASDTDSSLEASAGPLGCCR
Chain of Glycogen synthase kinase-3 alpha (P49840 2-483 limits assumed): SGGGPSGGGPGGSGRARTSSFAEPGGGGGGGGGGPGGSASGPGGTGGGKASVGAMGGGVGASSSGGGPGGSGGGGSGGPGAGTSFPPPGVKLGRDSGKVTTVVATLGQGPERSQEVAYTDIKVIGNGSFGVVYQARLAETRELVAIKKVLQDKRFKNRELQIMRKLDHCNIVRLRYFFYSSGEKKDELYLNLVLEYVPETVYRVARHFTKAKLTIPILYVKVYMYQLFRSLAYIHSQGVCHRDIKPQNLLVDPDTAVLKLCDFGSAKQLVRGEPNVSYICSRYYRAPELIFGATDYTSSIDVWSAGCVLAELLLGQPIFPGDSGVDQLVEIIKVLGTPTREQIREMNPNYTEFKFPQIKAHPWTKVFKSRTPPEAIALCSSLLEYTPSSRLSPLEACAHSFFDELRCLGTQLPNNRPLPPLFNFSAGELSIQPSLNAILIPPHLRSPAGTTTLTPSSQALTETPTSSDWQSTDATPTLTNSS

dTM [1]: -0.8 K
SMILES: CN(C(=O)c1cnn2cccnc12)c1cc2c(cc1N1CCOCC1)C(=O)N(C[C@@H](F)C(C)(C)O)C2

SMILES: CNC(=O)Nc1ccc(-c2nc(N3CC4CCC(C3)O4)c3cnn(C4CCC5(CC4)OCCO5)c3n2)cc1
% of inhibition [2]: 3%

SMILES: COc1cc(Nc2nc(C)cc(-c3cnn4nc(OC)ccc34)n2)cc(C(F)(F)F)c1
% of control [3]: 95%

SMILES: O=C(NOC[C@H](O)CO)c1ccc(F)c(F)c1Nc1ccc(I)cc1F
% of control [4]: 90% | % of control [5]: 100%

% of control [6]: -5.86%
SMILES: Cn1cc(-n2cnc3c(NCc4nc5cc(Cl)c(Cl)cc5[nH]4)nc(N4CCOCC4)nc32)cn1
